ChEMBL document CHEMBL3399953, “Structure-assisted ligand-binding analysis using fluorogenic photoaffinity labeling” (Bioorg Med Chem Lett, 2015)
Active and inactive are the calls of the source. The rule behind the calls is not given here.

How the values were obtained:
[1] = target: Glutamate dehydrogenase 1, mitochondrial (Bos taurus) (UniProt P00366); assay: Binding affinity to bovine glutamate dehydrogenase ATP binding site using assessed as photo labeling level at 80 uM by photo affinity labeling/reverse-phase HPLC of Lys-Cdigest assay in presence of ADP
Chain of Glutamate dehydrogenase 1, mitochondrial (Bos taurus) (P00366 whole entry): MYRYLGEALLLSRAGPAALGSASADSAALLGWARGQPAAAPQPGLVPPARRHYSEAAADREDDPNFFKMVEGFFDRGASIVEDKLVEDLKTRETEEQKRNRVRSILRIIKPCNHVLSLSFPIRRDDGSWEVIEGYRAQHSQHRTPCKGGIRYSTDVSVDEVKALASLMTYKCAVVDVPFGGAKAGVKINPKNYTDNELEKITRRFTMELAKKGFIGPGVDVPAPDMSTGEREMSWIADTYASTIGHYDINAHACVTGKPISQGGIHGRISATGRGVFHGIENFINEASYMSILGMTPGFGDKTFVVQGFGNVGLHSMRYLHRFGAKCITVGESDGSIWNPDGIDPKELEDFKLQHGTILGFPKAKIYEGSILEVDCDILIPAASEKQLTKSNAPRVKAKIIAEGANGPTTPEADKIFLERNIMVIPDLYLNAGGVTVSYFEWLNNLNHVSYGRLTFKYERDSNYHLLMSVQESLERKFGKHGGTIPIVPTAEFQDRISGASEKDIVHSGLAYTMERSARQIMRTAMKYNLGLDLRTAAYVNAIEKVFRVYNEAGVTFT

[2] = target: Glutamate dehydrogenase 1, mitochondrial (Bos taurus) (UniProt P00366); assay: Binding affinity to bovine glutamate dehydrogenase ATP binding site using assessed as fluorescence intensity at 80 uM by photo affinity labeling/reverse-phase HPLC of Lys-Cdigest assay in presence of ATP
[3] = target: Glutamate dehydrogenase 1, mitochondrial (Bos taurus) (UniProt P00366); assay: Binding affinity to bovine glutamate dehydrogenase ATP binding site using assessed as decrease in photo labeling peak time at 80 uM by photo affinity labeling/reverse-phase HPLC of Lys-Cdigest assay in presence of 100 uM NADH/10 mM glutamate relative to NADH alone
[4] = target: Glutamate dehydrogenase 1, mitochondrial (Bos taurus) (UniProt P00366); assay: Binding affinity to bovine glutamate dehydrogenase ATP binding site using assessed as photo labeling level at 80 uM by photo affinity labeling/reverse-phase HPLC of Lys-Cdigest assay in presence of ATP
[5] = target: Glutamate dehydrogenase 1, mitochondrial (Bos taurus) (UniProt P00366); assay: Binding affinity to bovine glutamate dehydrogenase ATP binding site using assessed as photo labeling peak time at 80 uM by photo affinity labeling/reverse-phase HPLC of Lys-Cdigest assay in presence of 100 uM NADH/10 mM glutamate
[6] = target: Glutamate dehydrogenase 1, mitochondrial (Bos taurus) (UniProt P00366); assay: Binding affinity to bovine glutamate dehydrogenase ATP binding site using assessed as photo labeling level at 80 uM by photo affinity labeling/reverse-phase HPLC of Lys-Cdigest assay in presence of NADH
[7] = target: Glutamate dehydrogenase 1, mitochondrial (Bos taurus) (UniProt P00366); assay: Binding affinity to bovine glutamate dehydrogenase ATP binding site using assessed as coumarin-labeled pepdite retention time at 80 uM by photo affinity labeling/reverse-phase HPLC of Lys-Cdigest assay in presence of ATP

SMILES | Activity [1] | Activity [2] | inhibition [3] [%] | Activity [4] [%] | Retention time [5] [min] | Activity [6] [%] | Retention time [7] [min]
C/C(=C\c1ccc(C2(C(F)(F)F)N=N2)cc1O)C(=O)NCCNP(=O)(O)OP(=O)(O)OC[C@H]1O[C@@H](n2cnc3c(N)ncnc32)[C@H](O)[C@@H]1O | Active | Active | – | – | – | – | –
C/C(=C\c1ccc(C2(C(F)(F)F)N=N2)cc1O)C(=O)NCCNP(=O)(O)OP(=O)(O)OP(=O)(O)OC[C@H]1O[C@@H](n2cnc3c(N)ncnc32)[C@H](O)[C@@H]1O | 10% | Active | 59 | 55 | 21.1 | 89 | 21.1
